Here are results for seven molecules from PubChem BioAssay (NCI).

Holding throughout (experiment): NCI anticancer screen, dose series, 48 h
In test [1] the test system is TK-10 renal.
Test [2] relates to ACHN renal.
Test [3] concerns DMS 273 small cell lung.
Test [4] has as its system HCC-2998 colon.
Test [5] concerns DLD-1 colon.
Test [6] has as its system M19-MEL melanoma.
Test [7] deals with HOP-92 NSCLC.
For test [8], the system named is SR leukemia.
For test [9], the system named is RXF 393 renal.
Test [10] relates to DU-145 prostate.
Test [11] has as its system MDA-MB-435.
Test [12] has as its system HS 578T breast.
The test system of test [13] is T-47D breast.
Test [14] has as its system MALME-3M melanoma.
In test [15] the test system is MDA-N.
Test [16] has as its system BT-549 breast.
Test [17] has as its system OVCAR-3 ovarian.
Test [18] relates to NCI/ADR-RES ovarian.
Test [19] concerns PC-3 prostate.
In test [20] the test system is MCF7 breast.

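96-well plates; 48 h exposure; 5 concentrations. Endpoints by linear interpolation between flanking doses. Not reached: highest tested concentration assigned. Definition used: TGI = concentration required for complete inhibition of growth.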

Take `COc1cccc(NC(=O)C(=O)C(C(=O)c2ccccc2F)C2OC(=O)c3ccccc32)c1` (centres undefined): the TGI in test [1] is over 100 µM; in test [2], over 100 µM; in [3], over 100 µM; in [4], 39.2 µM; in test [5] it was over 100 µM; in test [6] it was over 100 µM. For the same molecule, the TGI in test [7] is over 100 µM; in [8] it was 48.5 µM; in test [9], 63.6 µM.
As to `COC(=O)C1=C(OC(=O)/C=C/c2ccc(Cl)cc2)C(C(=O)OC)[C@@]2(O)[C@@H](C(=O)OC)[C@H](C)C[C@@H]1[C@@H]2C(=O)OC` (some centres undefined), the TGI in test [10] was over 100 µM; in test [11], over 100 µM; in test [12], 15.5 µM; in [1], over 100 µM; in test [2] it was 80 µM; in [13], over 100 µM. The TGI in [14] is 38.2 µM; in test [15], 29.5 µM; in [16], 53.7 µM; in [9], over 100 µM; in [17] it was over 100 µM; in test [18] it was 64.6 µM. The same molecule had a TGI in [19] of 69 µM.
As for `COC1(O)c2cccc(Cl)c2C(=O)N1C1(C(N)=O)CCCCC1` (centres undefined), the TGI in test [20], in test [3], in test [14], in [4], in test [5] and in [6] was over 100 µM throughout. For the same molecule, the TGI is 40.7 µM in test [7], over 100 µM in [9], over 100 µM in test [17] and over 100 µM in [18].
For the molecule `O=C(O)C12CCCCC1CCCC2` (centres undefined), the TGI in test [1], in test [2], in test [3], in [4], in test [5] and in test [6] was over 100 µM in each case. Besides, the TGI in test [7] and in [17] was over 100 µM each time.
As for `NC12CCC(CC1=O)C2` (centres undefined), the TGI in test [10], in test [11], in test [12], in test [1], in test [20] and in [2] was over 100 µM each time. The TGI in test [13], in [14], in test [4], in test [15], in test [7] and in test [8] was over 100 µM in each case. Further, the TGI in test [17], in test [18] and in test [19] was over 100 µM in each case.
Take `O=C1C=CC(=O)c2c1ccc1c3ccccc3n(-c3ccccc3[N+](=O)[O-])c21`: the TGI in test [10] is 18.9 µM; in [11], 5.6 µM; in test [12], 36.4 µM; in [1], 5.89 µM; in test [20] it was 20 µM; in test [2] it was 3.46 µM. In addition, the TGI in test [13] is 5.19 µM; in test [14], 5.63 µM; in test [4], 13.2 µM; in test [15] it was over 21.6 µM; in test [16], 14.6 µM; in test [8], over 100 µM. Besides, the TGI in test [9] came to 3.24 µM; in [18], 20.5 µM; in test [19], 12.4 µM.
Regarding `COc1cc2c(cc1OC)C(=O)/C(=C/c1cc(OC)c(OC)c(OC)c1)C2`, the TGI in test [10], in [11], in test [12], in test [20], in [13] and in [14] was over 100 µM each time. Also, the TGI in test [15], in test [16], in test [7], in [8], in test [9] and in test [17] was over 100 µM each time. Also, the TGI in test [18] and in test [19] was over 100 µM throughout.
